Data: publication PMC5640650, “NatD promotes lung cancer progression by preventing histone H4 serine phosphorylation to activate Slug expression” (Nature Communications, 2017)

Columns and labels:
Format in all cases: cell-based, human
H1299 cells [1] = test: Transwell migration and invasion assay, H1299 cells; settings: 12 h, knockdown vs Scr
Source text: Fig. 2 NatD is required for lung cancer cell migration and invasion in vitro. a Quantitative real-time PCR analysis of NatD mRNA levels normalized to GAPDH in scrambled control cells (Scr) and NatD-KD1 and NatD-KD2 cells. Results are shown as mean ± s.d. from three independent experiments. Two-tailed Student’s t-test was used. **P < 0.01 compared to Scr control. b Western blot analysis of NatD and Nt-ac-H4 protein levels in scrambled, NatD-KD1, and NatD-KD2 cells. GAPDH and histone H4 served as loading controls. […] Wound healing assay results are quantified in the histogram (right panel). […] Cell migration and invasion are expressed as a percentage of control (bottom panel). […]
Fig. 5 Regulation of Slug by NatD is acetyltransferase activity-dependent. a (left) In vitro acetylation assay showing the catalytic activity of NatDΔ and wild-type NatD (CPM, counts per minute). […] (bottom) Histones shown by Coomassie blue staining. d Quantitative real-time PCR analysis of mRNA levels of Slug, E-cadherin, N-cadherin, and Vimentin normalized to GAPDH in H1299 cells overexpressing NatDΔ or wild-type NatD. […] Cell migration and invasion are expressed as a percentage of control (bottom panel). […]
The in vitro viability of H1299 cells was assessed using the Cell Counting Kit-8 (CCK-8, Dojindo, Japan) according to the manufacturer’s protocol. […]

H1299 cells [2] = test: Cell growth (CCK-8), H1299 cells; settings: vs Scr
Experimental: The in vitro viability of H1299 cells was assessed using the Cell Counting Kit-8 (CCK-8, Dojindo, Japan) according to the manufacturer’s protocol. Flow cytometric analysis of apoptosis was assessed by Annexin V and PI staining using the Annexin V-APC Apoptosis Detection Kit (KeyGEN BioTECH, China) according to the manufacturer’s guide. For cell cycle analysis, cells were harvested and fixed at 4 °C overnight with 70% ethanol. Cells were washed twice with PBS, and their DNA was stained using a Cell Cycle Detection Kit (KeyGEN BioTECH, China). The samples were analyzed by flow cytometry (Becton Dickinson, NJ, USA), and results were analyzed with FlowJo software according to the manufacturer’s instructions. For the wound healing assay, cells were plated to confluence in a 6-well plate, and the cell monolayer was scratched using a pipette tip. Representative photos were taken using a digital camera mounted on an inverted microscope (Olympus) at indicated times. Live cell imaging was performed using the HoloMonitor M4 time-lapse cytometer (Phase Holographic Imaging, Sweden). […]
Supplementary Figure 1. […] (b and c) Representative images from three independent experiments of apoptosis (b) and cell cycle analysis (c) of Scr and NatD-KD H1299 cells analyzed by flow cytometry. […]

NatD = test: Quantitative real-time PCR / western blot of NatD knockdown; settings: H1299 cells; for NatD mRNA, remaining relative to scrambled control: stable lentiviral shRNA, qPCR normalized to GAPDH, three independent experiments; for NatD protein level: western blot, vs Scr
Source text: Fig. 2 NatD is required for lung cancer cell migration and invasion in vitro. a Quantitative real-time PCR analysis of NatD mRNA levels normalized to GAPDH in scrambled control cells (Scr) and NatD-KD1 and NatD-KD2 cells. Results are shown as mean ± s.d. from three independent experiments. Two-tailed Student’s t-test was used. **P < 0.01 compared to Scr control. b Western blot analysis of NatD and Nt-ac-H4 protein levels in scrambled, NatD-KD1, and NatD-KD2 cells. GAPDH and histone H4 served as loading controls. Blots are representative of three independent experiments. c Representative images from wound healing assay of scrambled, NatD-KD1, and NatD-KD2 cells from three independent experiments (left panels). Wound healing assay results are quantified in the histogram (right panel). Results are shown as mean ± s.d. from three independent experiments. Two-tailed Student’s t-test was used. **P < 0.01 compared to Scr control. d Representative images of the migration of scrambled, NatD-KD1, and NatD-KD2 cells in a time-lapse cell tracker migration assay from three independent experiments. Representative images of the migration (e) and invasion (f) of scramble, NatD-KD1, and NatD-KD2 cells with transwell assay from three independent experiments (top panel). Cell counts for the corresponding assays of at least four random microscope fields (×100 magnification). Cell migration and invasion are expressed as a percentage of control (bottom panel). Results are shown as mean ± s.d. from three independent experiments. Two-tailed Student’s t-test was used. **P < 0.01 compared to Scr control
The small interfering RNA (siRNA) target sequences for RNA interference of NatD were inserted into the XhoI/HpaI sites in the pLL3.7 lentiviral vector according to the manufacturer’s recommendations (American Type Culture Collection, USA). The oligonucleotides were:
Total RNA from tissue samples and cultured cells was extracted using TRIzol reagent (Invitrogen). cDNAs were synthesized with a HiScript 1st Strand cDNA Synthesis Kit (Vazyme Biotech, China). Quantitative RT-PCR was performed using a FastStart Universal SYBR Green Master (Roche) according to the manufacturer’s instructions in a Rotor-Gene 6000 (Corbett Research) in a final volume of 20 μl. Cycling conditions were 94 °C for 15 s, 60 °C for 30 s, and 72 °C for 30 s. Each reaction was performed in triplicate. The primer sequences for RT-PCR are listed in Supplementary Table 2 and Table 3.

H1299 cells [3] = test: Time-lapse cell-tracking, H1299 cells; settings: HoloMonitor M4, vs Scr
Source text: Fig. 2 NatD is required for lung cancer cell migration and invasion in vitro. a Quantitative real-time PCR analysis of NatD mRNA levels normalized to GAPDH in scrambled control cells (Scr) and NatD-KD1 and NatD-KD2 cells. Results are shown as mean ± s.d. from three independent experiments. Two-tailed Student’s t-test was used. **P < 0.01 compared to Scr control. b Western blot analysis of NatD and Nt-ac-H4 protein levels in scrambled, NatD-KD1, and NatD-KD2 cells. GAPDH and histone H4 served as loading controls. Blots are representative of three independent experiments. c Representative images from wound healing assay of scrambled, NatD-KD1, and NatD-KD2 cells from three independent experiments (left panels). Wound healing assay results are quantified in the histogram (right panel). […] Cell migration and invasion are expressed as a percentage of control (bottom panel). […]
The in vitro viability of H1299 cells was assessed using the Cell Counting Kit-8 (CCK-8, Dojindo, Japan) according to the manufacturer’s protocol. Flow cytometric analysis of apoptosis was assessed by Annexin V and PI staining using the Annexin V-APC Apoptosis Detection Kit (KeyGEN BioTECH, China) according to the manufacturer’s guide. […] The samples were analyzed by flow cytometry (Becton Dickinson, NJ, USA), and results were analyzed with FlowJo software according to the manufacturer’s instructions. […]

Substance | migratory and invasive capabilities (transwell) (H1299 cells [1]) | cell growth rate (H1299 cells [2]) | NatD mRNA, remaining relative to scrambled control (NatD) | NatD protein level (NatD) | random motility (H1299 cells [3]) | NatD knockdown quality (NatD; KD2 vs KD1)
NatD-KD1: Human NatD shRNA KD1: 5′-GATGAAGAAGGTTATGTTA-3′, lentiviral (shRNA, lentiviral) | significantly reduced | grew at a similar rate | 30% | decreased | lower random motility | –
NatD-KD2: Human NatD shRNA KD2: 5′-GGTTGAATGTCTCCATTGA-3′, lentiviral (shRNA lentiviral) | significantly reduced | grew at a similar rate | 30% | decreased | lower random motility | somewhat better knockdown
